System: human bone marrow-derived CD34+ osteoclast precursor cells
Experiment: Osteoclast differentiation assay (secreted TRACP 5b at day 7)
Assay type: cell-based
Protocol: The study was performed in four parts. In the first part, human bone marrow-derived CD34+ osteoclast precursor cells were cultured on bovine bone slices for 7 days, after which the formed osteoclasts were quantitated by measuring tartrate-resistant acid phosphatase 5b activity (TRACP 5b) in the culture medium.
The objective of this study was to investigate the effects of Compound 1 selected by the Sponsor on differentiation and activity of human osteoclasts and mouse osteoblasts in vitro. The effects on osteoclasts were studied using a model where bone marrow-derived human osteoclast precursor cells are cultured on bovine bone slices for 7 days in conditions favouring osteoclast differentiation, and allowed to differentiate into bone-resorbing osteoclasts. After completion of osteoclast differentiation at day 7, the culture medium was removed and new culture medium favouring osteoclast activity was added into the wells. The mature osteoclasts were then cultured for an additional 3 days, allowing them to resorb bone. In the osteoclast differentiation assay, the test compounds and a reference inhibitor osteoprotegerin (OPG) were added into cultures at day 0. In the osteoclast activity assay, the test compounds and a reference inhibitor E64 were added into cultures at day 7. Seven concentrations in 8 replicates were tested in both assays. Tartrate-resistant acid phosphatase 5b activity (TRACP 5b) was measured from the culture medium collected at day 7 as an index of the number of osteoclasts formed in each well during the differentiation period. C-terminal cross-linked telopeptides of type I collagen (CTX) was measured from the culture medium collected at day 10 to quantitate bone resorption during days 7-10.
A human osteoclast culture system was developed for use in this study where CD34+ osteoclast precursor cells derived from human bone marrow (Poietics® Human Osteoclast Precursors, Lonza, Walkersville, USA) are cultured on bovine bone slices in the presence of appropriate growth factors, including M-CSF and RANK-ligand (Rissanen et al. 2009). The cells are first allowed to differentiate into mature bone-resorbing osteoclasts, and the formed osteoclasts are then allowed to resorb bone. The test and reference compounds are added into the cell cultures at the beginning of the differentiation and/or the resorption period, and their effects on the differentiation and/or resorbing activity of osteoclasts are determined.
Secreted TRACP 5b is determined from the culture medium after the differentiation period using a commercially available method (BoneTRAPÒ, IDS Ltd, Boldon, UK). Secreted TRACP 5b describes accurately the number of osteoclasts formed in each well during the differentiation period. CTX is determined from the culture medium after the resorption period using a commercially available method (CrossLapsÒ for cultures, IDS Ltd, Boldon, UK). CTX describes accurately the amount of bone collagen degradation products released into the culture medium in each well during the resorption period.
In this study, human bone marrow-derived CD34+ stem cells (10000 cells/well) were suspended in culture medium and allowed to attach to bovine bone slices in 96-well tissue culture plates. The culture medium (containing 10% FBS, OCP BulletKit® Lonza, Walkersville, USA) was supplemented with appropriate amounts of important growth factors favoring osteoclast differentiation and activity, including M-CSF (33 ng/ml, OCP BulletKit® Lonza, Walkersville, USA) and RANK-ligand (66 ng/ml, OCP BulletKit® Lonza, Walkersville, USA) in 200 μl of medium. The cells were incubated in a CO2 incubator in humidified atmosphere of 95% air and 5% carbon dioxide at 37° C. for 7 days. The test compounds and reference compound OPG were added at day 0. Supernatants collected at day 7 were stored at −70° C. until analysis of TRACP 5b. TRACP 5b was measured from the culture medium (20 μl/sample) using VICTOR2™ Multilabel Counter (PerkinElmer, Waltham, Mass., USA). […]

With `COc1cc2nccc(Oc3ccc(NC(=O)C4(C(=O)Nc5ccc(F)cc5)CC4)cc3)c2cc1OC` [Compound 1, N-(4-{[6,7-bis(methyloxy)quinolin-4-yl]oxy}phenyl)-N′-(4-fluorophenyl)cyclopropane-1,1-dicarboxamide] the “number of Hoechst and TRACP positive mononuclear cells (microscopic analysis)” value (0.11 and 0.33 μM) was “did not affect”, the “number of Hoechst and TRACP positive mononuclear cells (microscopic analysis)” value (1.0 and 3.0 μM, effects at least partly cytotoxic) was “decreased” and the activity at 0.004 µM (Homo sapiens, Osteoclast, 168 h, 0.004 μM Compound 1, read-out: TRACP 5b Activity at Day 7, Percent Activity (%) Compared to BL) was 85%. The activity at 0.012 µM (Homo sapiens, Osteoclast, 168 h, 0.012 μM Compound 1, read-out: TRACP 5b Activity at Day 7, Percent Activity (%) Compared to BL) was 80%, the activity at 0.037 µM (Homo sapiens, Osteoclast, 168 h, 0.037 μM Compound 1, read-out: TRACP 5b Activity at Day 7, Percent Activity (%) Compared to BL) was 74% and the activity at 0.11 µM (Homo sapiens, Osteoclast, 168 h, 0.11 μM Compound 1, read-out: TRACP 5b Activity at Day 7, Percent Activity (%) Compared to BL) was 45%. It also gave an activity at 0.33 µM (Homo sapiens, Osteoclast, 168 h, 0.33 μM Compound 1, read-out: TRACP 5b Activity at Day 7, Percent Activity (%) Compared to BL) of 15%, an activity at 1 µM (Homo sapiens, Osteoclast, 168 h, 1.0 μM Compound 1, read-out: TRACP 5b Activity at Day 7, Percent Activity (%) Compared to BL) of 4% and an activity at 3 µM (Homo sapiens, Osteoclast, 168 h, 3.0 μM Compound 1, read-out: TRACP 5b Activity at Day 7, Percent Activity (%) Compared to BL) of 0%. The “effect on osteoclast differentiation” value (significant with 0.11, 0.33, 1.0 and 3.0 μM concentrations) was “dose-dependent inhibition”.
